From ChEMBL document CHEMBL1151757, “Synthesis, radiosynthesis, and biological evaluation of fluorine-18-labeled 2beta-carbo(fluoroalkoxy)-3beta-(3'-((Z)-2-haloethenyl)phenyl)nortropanes: candidate radioligands for in vivo imaging of the serotonin transporter with positron emission tomography” (J Med Chem, 2008)

tested on: Caudate; experiment: Drug uptake in anesthetized cynomolgus monkey brain caudate after 155 mins postinjection; assay type: ADME, organism-based, Macaca fascicularis, Caudate nucleus; details: in vivo

Compound	Drug uptake
O=C(OCCC[18F])C1C2CCC(CC1c1cccc(/C=C\Br)c1)N2 (centres undefined)	4.18

tested on: Putamen; experiment: Drug uptake in anesthetized cynomolgus monkey brain putamen after 22.5 mins postinjection; assay type: ADME, organism-based, Macaca fascicularis; design: unit not given here; details: in vivo, 0.375 h

Compound	Drug uptake
O=C(OCCC[18F])C1C2CCC(CC1c1cccc(/C=C\Br)c1)N2 (centres undefined)	5.81

tested on: Medulla; experiment: Drug uptake in anesthetized cynomolgus monkey brain medulla after 55 mins postinjection; assay type: ADME, organism-based, Macaca fascicularis; details: in vivo

Compound	Drug uptake
O=C(OCCC[18F])C1C2CCC(CC1c1cccc(/C=C\Br)c1)N2 (centres undefined)	5.66

tested on: not listed separately; experiment: Ratio of drug uptake in thalamus to cerebellum in anesthetized cynomolgus monkey after 135 mins postinjection; assay type: ADME, organism-based, Macaca fascicularis; details: in vivo, 2.25 h

Compound	Ratio
O=C(OCCC[18F])C1C2CCC(CC1c1cccc(/C=C\Br)c1)N2 (centres undefined)	1.6

tested on: Pons; experiment: Drug uptake in anesthetized cynomolgus monkey brain pons after 235 mins postinjection; assay type: ADME, organism-based, Macaca fascicularis; details: in vivo

Compound	Drug uptake
O=C(OCCC[18F])C1C2CCC(CC1c1cccc(/C=C\Br)c1)N2 (centres undefined)	3.26

tested on: Pons; experiment: Drug uptake in anesthetized cynomolgus monkey brain pons after 22.5 mins postinjection; assay type: ADME, organism-based, Macaca fascicularis; details: in vivo, 0.375 h

Compound	Drug uptake
O=C(OCCC[18F])C1C2CCC(CC1c1cccc(/C=C\Br)c1)N2 (centres undefined)	4.89

tested on: Caudate; experiment: Drug uptake in anesthetized cynomolgus monkey brain caudate after 22.5 mins postinjection; assay type: ADME, organism-based, Macaca fascicularis, Caudate nucleus; details: in vivo, 0.375 h

Compound	Drug uptake
O=C(OCCC[18F])C1C2CCC(CC1c1cccc(/C=C\Br)c1)N2 (centres undefined)	4.63

tested on: not listed separately; experiment: Drug uptake in anesthetized cynomolgus monkey brain occipital lobe after 115 mins postinjection; assay type: ADME, organism-based, Macaca fascicularis; details: in vivo

Compound	Drug uptake
O=C(OCCC[18F])C1C2CCC(CC1c1cccc(/C=C\Br)c1)N2 (centres undefined)	3.72

tested on: Putamen; experiment: Drug uptake in anesthetized cynomolgus monkey brain putamen after 4.5 mins postinjection; assay type: ADME, organism-based, Macaca fascicularis; design: unit not given here; details: in vivo, 0.075 h

Compound	Drug uptake
O=C(OCCC[18F])C1C2CCC(CC1c1cccc(/C=C\Br)c1)N2 (centres undefined)	3.11

tested on: not listed separately; experiment: Drug uptake in anesthetized cynomolgus monkey brain occipital lobe after 75 mins postinjection; assay type: ADME, organism-based, Macaca fascicularis; details: in vivo, 1.25 h

Compound	Drug uptake
O=C(OCCC[18F])C1C2CCC(CC1c1cccc(/C=C\Br)c1)N2 (centres undefined)	4.29

tested on: Medulla; experiment: Drug uptake in anesthetized cynomolgus monkey brain medulla after 135 mins postinjection; assay type: ADME, organism-based, Macaca fascicularis; details: in vivo, 2.25 h

Compound	Drug uptake
O=C(OCCC[18F])C1C2CCC(CC1c1cccc(/C=C\Br)c1)N2 (centres undefined)	4.99

tested on: Caudate; experiment: Drug uptake in anesthetized cynomolgus monkey brain caudate after 6.5 mins postinjection; assay type: ADME, organism-based, Macaca fascicularis, Caudate nucleus; details: in vivo

Compound	Drug uptake
O=C(OCCC[18F])C1C2CCC(CC1c1cccc(/C=C\Br)c1)N2 (centres undefined)	3.14

tested on: Putamen; experiment: Drug uptake in anesthetized cynomolgus monkey brain putamen after 175 mins postinjection; assay type: ADME, organism-based, Macaca fascicularis; details: in vivo

Compound	Drug uptake
O=C(OCCC[18F])C1C2CCC(CC1c1cccc(/C=C\Br)c1)N2 (centres undefined)	4.1

tested on: not listed separately; experiment: Drug uptake in anesthetized cynomolgus monkey brain occipital lobe after 3.5 mins postinjection; assay type: ADME, organism-based, Macaca fascicularis; details: in vivo

Compound	Drug uptake
O=C(OCCC[18F])C1C2CCC(CC1c1cccc(/C=C\Br)c1)N2 (centres undefined)	1.51

tested on: not listed separately; experiment: Drug uptake in anesthetized cynomolgus monkey brain occipital lobe after 225 mins postinjection; assay type: ADME, organism-based, Macaca fascicularis; details: in vivo, 3.75 h

Compound	Drug uptake
O=C(OCCC[18F])C1C2CCC(CC1c1cccc(/C=C\Br)c1)N2 (centres undefined)	2.54

tested on: Thalamus; experiment: Drug uptake in anesthetized cynomolgus monkey brain thalamus after 9.5 mins postinjection; assay type: ADME, organism-based, Macaca fascicularis; design: unit not given here; details: in vivo

Compound	Drug uptake
O=C(OCCC[18F])C1C2CCC(CC1c1cccc(/C=C\Br)c1)N2 (centres undefined)	4.02

tested on: Caudate; experiment: Drug uptake in anesthetized cynomolgus monkey brain caudate after 135 mins postinjection; assay type: ADME, organism-based, Macaca fascicularis, Caudate nucleus; details: in vivo, 2.25 h

Compound	Drug uptake
O=C(OCCC[18F])C1C2CCC(CC1c1cccc(/C=C\Br)c1)N2 (centres undefined)	4.43

tested on: Medulla; experiment: Drug uptake in anesthetized cynomolgus monkey brain medulla after 9.5 mins postinjection; assay type: ADME, organism-based, Macaca fascicularis; details: in vivo

Compound	Drug uptake
O=C(OCCC[18F])C1C2CCC(CC1c1cccc(/C=C\Br)c1)N2 (centres undefined)	5.63

tested on: Pons; experiment: Drug uptake in anesthetized cynomolgus monkey brain pons after 3.5 mins postinjection; assay type: ADME, organism-based, Macaca fascicularis; details: in vivo

Compound	Drug uptake
O=C(OCCC[18F])C1C2CCC(CC1c1cccc(/C=C\Br)c1)N2 (centres undefined)	1.87

tested on: Medulla; experiment: Drug uptake in anesthetized cynomolgus monkey brain medulla after 225 mins postinjection; assay type: ADME, organism-based, Macaca fascicularis; details: in vivo, 3.75 h

Compound	Drug uptake
O=C(OCCC[18F])C1C2CCC(CC1c1cccc(/C=C\Br)c1)N2 (centres undefined)	3.64

tested on: Pons; experiment: Drug uptake in anesthetized cynomolgus monkey brain pons after 95 mins postinjection; assay type: ADME, organism-based, Macaca fascicularis; details: in vivo

Compound	Drug uptake
O=C(OCCC[18F])C1C2CCC(CC1c1cccc(/C=C\Br)c1)N2 (centres undefined)	4.68

tested on: Thalamus; experiment: Drug uptake in anesthetized cynomolgus monkey brain thalamus after 35 mins postinjection; assay type: ADME, organism-based, Macaca fascicularis; design: unit not given here; details: in vivo

Compound	Drug uptake
O=C(OCCC[18F])C1C2CCC(CC1c1cccc(/C=C\Br)c1)N2 (centres undefined)	5.26

tested on: not listed separately; experiment: Drug uptake in anesthetized cynomolgus monkey brain occipital lobe after 175 mins postinjection; assay type: ADME, organism-based, Macaca fascicularis; details: in vivo

Compound	Drug uptake
O=C(OCCC[18F])C1C2CCC(CC1c1cccc(/C=C\Br)c1)N2 (centres undefined)	3.06

tested on: not listed separately; experiment: Drug uptake in anesthetized cynomolgus monkey brain frontal lobe after 225 mins postinjection; assay type: ADME, organism-based, Macaca fascicularis; details: in vivo, 3.75 h

Compound	Drug uptake
O=C(OCCC[18F])C1C2CCC(CC1c1cccc(/C=C\Br)c1)N2 (centres undefined)	1.97

tested on: Pons; experiment: Drug uptake in anesthetized cynomolgus monkey brain pons after 115 mins postinjection; assay type: ADME, organism-based, Macaca fascicularis; details: in vivo

Compound	Drug uptake
O=C(OCCC[18F])C1C2CCC(CC1c1cccc(/C=C\Br)c1)N2 (centres undefined)	4.2

tested on: Pons; experiment: Drug uptake in anesthetized cynomolgus monkey brain pons after 4.5 mins postinjection; assay type: ADME, organism-based, Macaca fascicularis; details: in vivo, 0.075 h

Compound	Drug uptake
O=C(OCCC[18F])C1C2CCC(CC1c1cccc(/C=C\Br)c1)N2 (centres undefined)	2.44

tested on: Medulla; experiment: Drug uptake in anesthetized cynomolgus monkey brain medulla after 125 mins postinjection; assay type: ADME, organism-based, Macaca fascicularis; details: in vivo

Compound	Drug uptake
O=C(OCCC[18F])C1C2CCC(CC1c1cccc(/C=C\Br)c1)N2 (centres undefined)	4.99

tested on: not listed separately; experiment: Ratio of drug uptake in putamen to cerebellum in anesthetized cynomolgus monkey after 6.5 mins postinjection; assay type: ADME, organism-based, Macaca fascicularis; details: in vivo

Compound	Ratio
O=C(OCCC[18F])C1C2CCC(CC1c1cccc(/C=C\Br)c1)N2 (centres undefined)	0.9

tested on: Medulla; experiment: Drug uptake in anesthetized cynomolgus monkey brain medulla after 45 mins postinjection; assay type: ADME, organism-based, Macaca fascicularis; details: in vivo, 0.75 h

Compound	Drug uptake
O=C(OCCC[18F])C1C2CCC(CC1c1cccc(/C=C\Br)c1)N2 (centres undefined)	5.8
